Source: patent publication US20120101093A1, “SUBSTITUTED IMIDAZO[1,2-A]PYRIDINE DERIVATIVES, PHARMACEUTICAL COMPOSITIONS, AND METHODS OF USE AS BETA-SECRETASE INHIBITORS” (HIGH POINT PHARMACEUTICALS, LLC, priority 2009, published 2012)

How the values were obtained:
BACE-1 enzyme = target: T1, BACE-1 enzyme (Homo sapiens, UniProt P56817); assay: BACE Fluorescence Resonance Energy Transfer (FRET) Assay; assay type: biochemical; settings: pH 4-4.5, 30 min pre-incubation, about 1.5 hours reaction
T1 construct: purchased R & D Systems 931AS
T1 sequence (P56817 46-457 limits assumed): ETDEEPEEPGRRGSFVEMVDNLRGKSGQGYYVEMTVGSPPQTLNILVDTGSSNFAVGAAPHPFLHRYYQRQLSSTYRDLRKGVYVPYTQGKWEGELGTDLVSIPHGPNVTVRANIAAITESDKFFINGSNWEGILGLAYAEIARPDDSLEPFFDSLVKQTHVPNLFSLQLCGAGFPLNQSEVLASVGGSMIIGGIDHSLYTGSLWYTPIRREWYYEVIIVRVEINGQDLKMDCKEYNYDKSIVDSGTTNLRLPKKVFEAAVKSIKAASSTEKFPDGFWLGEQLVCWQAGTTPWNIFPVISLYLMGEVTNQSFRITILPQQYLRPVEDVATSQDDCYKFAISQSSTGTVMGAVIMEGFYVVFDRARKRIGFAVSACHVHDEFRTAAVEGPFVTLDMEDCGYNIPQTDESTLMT
Summary of the method: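 BACE-1 enzyme pre-incubated 30 min with compound in 7.5% DMSO in 50 mM sodium acetate pH 4-4.5, 0.01% CHAPS, 0.0125% Triton X-100, 0.006% EDTA. Rhodamine/quencher peptide substrate added; ~1.5 h at room temperature, fluorescence read at 540/585 nm. IC50 or percent inhibition at one concentration.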

[1] = system: Aβ1-40 secreted from HEK293 cells stably expressing wildtype human APP695 protein (HEK-APPwt cells); assay: Aβ Cell Based Assay (Aβ1-40 secretion, ELISA); settings: Homo sapiens, HEK293, 6 h, 6 hours incubation, reduction of Aβ1-40 secretion
Summary of the method: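 Cells in DMEM with 2% FBS exposed to ten compound concentrations for 6 h at 37 °C. Secreted Aβ1-40 in supernatant quantified by sandwich ELISA (82E1 capture, TMB, OD450). EC50 from percent inhibition, DAPT defining 100% inhibition, non-linear fit.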

Cc1cccc2nc(C(=O)Nc3nc4cc(-c5cccc(C(F)(F)F)c5O)ccc4[nH]3)cn12 [Example 109, 5-Methyl-imidazo[1,2-a]pyridine-2-carboxylic acid [5-(2-hydroxy-3-trifluoromethyl-phenyl)-1H-benzoimidazol-2-yl]-amide]
IC50 (BACE-1 enzyme): 0.87 µM | EC50 [1]: 4.85 µM

COc1c(-c2ccc3[nH]c(NC(=O)c4cn5c(C)cccc5n4)nc3c2)cccc1C(F)(F)F [Example 110, 5-Methyl-imidazo[1,2-a]pyridine-2-carboxylic acid [5-(2-methoxy-3-trifluoromethyl-phenyl)-1H-benzoimidazol-2-yl]-amide]
IC50 (BACE-1 enzyme): 0.4 µM | EC50 [1]: 0.75 µM

O=C(Nc1nc2cc(-c3cccc(C(F)(F)F)c3)ccc2[nH]1)c1cn2cc(F)ccc2n1 [Example 112, 6-Fluoro-imidazo[1,2-a]pyridine-2-carboxylic acid [5-(3-trifluoromethyl-phenyl)-1H-benzoimidazol-2-yl]-amide]
IC50 (BACE-1 enzyme): 0.43 µM | EC50 [1]: 1.94 µM

O=C(Nc1nc2cc(-c3cccc(C(F)(F)F)c3)ccc2[nH]1)c1cn2ccccc2n1 [Example 115, Imidazo[1,2-a]pyridine-2-carboxylic acid [5-(3-trifluoromethyl-phenyl)-1H-benzoimidazol-2-yl]-amide]
IC50 (BACE-1 enzyme): 0.37 µM | EC50 [1]: 1.43 µM

O=C(Nc1nc2cc(-c3cccc(OC(F)(F)F)c3)ccc2[nH]1)c1cn2ccccc2n1 [Example 117, Imidazo[1,2-a]pyridine-2-carboxylic acid [5-(3-trifluoromethoxy-phenyl)-1H-benzoimidazol-2-yl]-amide]
IC50 (BACE-1 enzyme): 0.54 µM | EC50 [1]: 3.67 µM

Cc1cccc2nc(C(=O)Nc3nc4cc(C5CCC(C)CC5)ccc4[nH]3)cn12 (stereo not drawn) [Example 119, 5-Methyl-imidazo[1,2-a]pyridine-2-carboxylic acid [5-(4-methyl-cyclohexyl)-1H-benzoimidazol-2-yl]-amide]
IC50 (BACE-1 enzyme): 0.27 µM | EC50 [1]: 1.82 µM

CN(C)c1cccc2nc(C(=O)Nc3nc4cc(-c5cccc(C(F)(F)F)c5)ccc4[nH]3)cn12 [Example 121, 5-Dimethylamino-imidazo[1,2-a]pyridine-2-carboxylic acid [5-(3-trifluoromethyl-phenyl)-1H-benzoimidazol-2-yl]-amide]
IC50 (BACE-1 enzyme): 0.67 µM | EC50 [1]: 0.37 µM

COCCNc1cccc2nc(C(=O)Nc3nc4cc(-c5cccc(C(F)(F)F)c5)ccc4[nH]3)cn12 [Example 122, 5-(2-Methoxy-ethylamino)-imidazo[1,2-a]pyridine-2-carboxylic acid [5-(3-trifluoromethyl-phenyl)-1H-benzoimidazol-2-yl]-amide]
IC50 (BACE-1 enzyme): 0.54 µM | EC50 [1]: 1.5 µM

O=C(Nc1nc2cc(-c3cccc(C(F)(F)F)c3)ccc2[nH]1)c1cn2c(N3CCOCC3)cccc2n1 [Example 123, 5-Morpholin-4-yl-imidazo[1,2-a]pyridine-2-carboxylic acid [5-(3-trifluoromethyl-phenyl)-1H-benzoimidazol-2-yl]-amide]
IC50 (BACE-1 enzyme): 2.11 µM | EC50 [1]: 1.11 µM

COc1ccc(-c2ccc3[nH]c(NC(=O)c4cn5c(N6CCN(C)CC6)cccc5n4)nc3c2)cc1C(F)(F)F [Example 124, 5-(4-Methyl-piperazin-1-yl)-imidazo[1,2-a]pyridine-2-carboxylic acid [5-(4-methoxy-3-trifluoromethyl-phenyl)-1H-benzoimidazol-2-yl]-amide]
IC50 (BACE-1 enzyme): 0.55 µM | EC50 [1]: 3.13 µM

COc1cc(F)cn2cc(C(=O)Nc3nc4cc(-c5cc(F)cc(Cl)c5)ccc4[nH]3)nc12 [Example 126, 6-Fluoro-8-methoxy-imidazo[1,2-a]pyridine-2-carboxylic acid [5-(3-chloro-5-fluoro-phenyl)-1H-benzoimidazol-2-yl]-amide]
IC50 (BACE-1 enzyme): 0.22 µM | EC50 [1]: 1.58 µM

COc1cc(F)cn2cc(C(=O)Nc3nc4cc(-c5cccc(C(F)(F)F)c5)ccc4[nH]3)nc12 [Example 127, 6-Fluoro-8-methoxy-imidazo[1,2-a]pyridine-2-carboxylic acid [5-(3-trifluoromethyl-phenyl)-1H-benzoimidazol-2-yl]-amide]
IC50 (BACE-1 enzyme): 0.45 µM | EC50 [1]: 1.73 µM

O=C(Nc1nc2cc(-c3cccc(C(F)(F)F)c3)ccc2[nH]1)c1cn2c(CO)cccc2n1 [Example 161, 5-Hydroxymethyl-imidazo[1,2-a]pyridine-2-carboxylic acid [5-(3-trifluoromethyl-phenyl)-1H-benzoimidazol-2-yl]-amide]
IC50 (BACE-1 enzyme): 0.52 µM | EC50 [1]: 2.87 µM

COCCNCc1cccc2nc(C(=O)Nc3nc4cc(-c5cccc(C(F)(F)F)c5)ccc4[nH]3)cn12 [Example 162, 5-[(2-Methoxy-ethylamino)-methyl]-imidazo[1,2-a]pyridine-2-carboxylic acid [5-(3-trifluoromethyl-phenyl)-1H-benzoimidazol-2-yl]-amide]
IC50 (BACE-1 enzyme): 0.23 µM | EC50 [1]: 0.98 µM

CN(C)Cc1cccc2nc(C(=O)Nc3nc4cc(-c5cccc(C(F)(F)F)c5)ccc4[nH]3)cn12 [Example 163, 5-Dimethylaminomethyl-imidazo[1,2-a]pyridine-2-carboxylic acid [5-(3-trifluoromethyl-phenyl)-1H-benzoimidazol-2-yl]-amide]
IC50 (BACE-1 enzyme): 0.36 µM | EC50 [1]: 1.11 µM

O=C(Nc1nc2cc(-c3cccc(C(F)(F)F)c3)ccc2[nH]1)c1cn2c(CN3CCOCC3)cccc2n1 [Example 165, 5-Morpholin-4-ylmethyl-imidazo[1,2-a]pyridine-2-carboxylic acid [5-(3-trifluoromethyl-phenyl)-1H-benzoimidazol-2-yl]-amide]
IC50 (BACE-1 enzyme): 0.42 µM | EC50 [1]: 1.88 µM

O=C(Nc1nc2cc(-c3cccc(C(F)(F)F)c3)ccc2[nH]1)c1cn2c(CN3CCC(O)CC3)cccc2n1 [Example 167, 5-(4-Hydroxy-piperidin-1-ylmethyl)-imidazo[1,2-a]pyridine-2-carboxylic acid [5-(3-trifluoromethyl-phenyl)-1H-benzoimidazol-2-yl]-amide]
IC50 (BACE-1 enzyme): 0.77 µM | EC50 [1]: 1.54 µM

O=C(Nc1nc2cc(-c3cccc(C(F)(F)F)c3)ccc2[nH]1)c1cn2c(CNCCN3CCOCC3)cccc2n1 [Example 169, 5-[(2-Morpholin-4-yl-ethylamino)-methyl]-imidazo[1,2-a]pyridine-2-carboxylic acid [5-(3-trifluoromethyl-phenyl)-1H-benzoimidazol-2-yl]-amide]
IC50 (BACE-1 enzyme): 0.42 µM | EC50 [1]: 5.23 µM

CNCc1cccc2nc(C(=O)Nc3nc4cc(-c5cccc(C(F)(F)F)c5)ccc4[nH]3)cn12 [Example 170, 5-Methylaminomethyl-imidazo[1,2-a]pyridine-2-carboxylic acid [5-(3-trifluoromethyl-phenyl)-1H-benzoimidazol-2-yl]-amide]
IC50 (BACE-1 enzyme): 0.47 µM | EC50 [1]: 2.48 µM

O=C(Nc1nc2cc(-c3cccc(C(F)(F)F)c3)ccc2[nH]1)c1cn2c(CNCCCO)cccc2n1 [Example 171, 5-[(3-Hydroxy-propylamino)-methyl]-imidazo[1,2-a]pyridine-2-carboxylic acid [5-(3-trifluoromethyl-phenyl)-1H-benzoimidazol-2-yl]-amide]
IC50 (BACE-1 enzyme): 0.71 µM | EC50 [1]: 4.26 µM

CC(C)(C)NCc1cccc2nc(C(=O)Nc3nc4cc(-c5cccc(C(F)(F)F)c5)ccc4[nH]3)cn12 [Example 172, 5-(tert-Butylamino-methyl)-imidazo[1,2-a]pyridine-2-carboxylic acid [5-(3-trifluoromethyl-phenyl)-1H-benzoimidazol-2-yl]-amide]
IC50 (BACE-1 enzyme): 0.31 µM | EC50 [1]: 1.92 µM

COCCCNCc1cccc2nc(C(=O)Nc3nc4cc(-c5cccc(C(F)(F)F)c5)ccc4[nH]3)cn12 [Example 174, 5-[(3-Methoxy-propylamino)-methyl]-imidazo[1,2-a]pyridine-2-carboxylic acid [5-(3-trifluoromethyl-phenyl)-1H-benzoimidazol-2-yl]-amide]
IC50 (BACE-1 enzyme): 0.93 µM | EC50 [1]: 4.4 µM

CC(C)CNCc1ccc2nc(C(=O)Nc3nc4cc(-c5cccc(C(F)(F)F)c5)ccc4[nH]3)cn2c1 [Example 176, 6-(Isobutylamino-methyl)-imidazo[1,2-a]pyridine-2-carboxylic acid [5-(3-trifluoromethyl-phenyl)-1H-benzoimidazol-2-yl]-amide]
IC50 (BACE-1 enzyme): 0.37 µM | EC50 [1]: 3.91 µM

O=C(Nc1nc2cc(-c3cccc(C(F)(F)F)c3)ccc2[nH]1)c1cn2cc(CO)ccc2n1 [Example 177, 6-Hydroxymethyl-imidazo[1,2-a]pyridine-2-carboxylic acid [5-(3-trifluoromethyl-phenyl)-1H-benzoimidazol-2-yl]-amide]
IC50 (BACE-1 enzyme): 0.3 µM | EC50 [1]: 1.03 µM

O=C(Nc1nc2cc(-c3cccc(C(F)(F)F)c3)ccc2[nH]1)c1cn2cc(CN3CCCC3)ccc2n1 [Example 179, 6-Pyrrolidin-1-ylmethyl-imidazo[1,2-a]pyridine-2-carboxylic acid [5-(3-trifluoromethyl-phenyl)-1H-benzoimidazol-2-yl]-amide]
IC50 (BACE-1 enzyme): 0.55 µM | EC50 [1]: 4.74 µM

O=C(Nc1nc2cc(-c3cccc(C(F)(F)F)c3)ccc2[nH]1)c1cn2cc(CN3CCOCC3)ccc2n1 [Example 182, 6-Morpholin-4-ylmethyl-imidazo[1,2-a]pyridine-2-carboxylic acid [5-(3-trifluoromethyl-phenyl)-1H-benzoimidazol-2-yl]-amide]
IC50 (BACE-1 enzyme): 0.46 µM | EC50 [1]: 0.54 µM

CC(C)CN(C)Cc1ccc2nc(C(=O)Nc3nc4cc(-c5cccc(C(F)(F)F)c5)ccc4[nH]3)cn2c1 [Example 184, 6-[(Isobutyl-methyl-amino)-methyl]-imidazo[1,2-a]pyridine-2-carboxylic acid [5-(3-trifluoromethyl-phenyl)-1H-benzoimidazol-2-yl]-amide]
IC50 (BACE-1 enzyme): 0.83 µM | EC50 [1]: 4.32 µM
